Experimental data: ChEMBL document CHEMBL3045916, “Synthesis, characterization, biological evaluation and in silico screening of oxadiazinanones” (Med Chem Res, 2013)
Converted amounts (≈) assume the structure as drawn.

What was measured:
[1] = system: Pseudomonas aeruginosa; assay: Bactericidal activity against Pseudomonas aeruginosa ATCC 9029 after 18 to 24 hr; format: functional
[2] = system: Candida albicans; assay: Fungicidal activity against Candida albicans ATCC 90028 after 48 hr; format: functional; conditions: ATCC 90028, 48 h
[3] = system: Escherichia coli; assay: Antibacterial activity against Escherichia coli ATCC 25922 assessed as growth inhibition after 24 hr by disk diffusion method; format: functional
[4] = system: Klebsiella pneumoniae; assay: Bactericidal activity against Klebsiella pneumoniae clinical isolate after 18 to 24 hr; format: functional
[5] = system: Pseudomonas aeruginosa; assay: Antibacterial activity against Pseudomonas aeruginosa ATCC 9029 assessed as growth inhibition after 24 hr by disk diffusion method; format: functional
[6] = system: Trichophyton mentagrophytes; assay: Antifungal activity against Trichophyton mentagrophytes assessed as growth inhibition after 48 hr by macro-dilution method; format: functional
[7] = system: Talaromyces marneffei; assay: Antifungal activity against Talaromyces marneffei assessed as growth inhibition after 48 hr by agar disk diffusion method; format: functional
[8] = system: Radical scavenging activity; assay: Antioxidant activity assessed as DPPH radical scavenging activity at 10 ug/mL after 30 min by spectrophotometric analysis relative to control; format: functional
[9] = system: Aspergillus fumigatus; assay: Antifungal activity against Aspergillus fumigatus assessed as growth inhibition after 48 hr by agar disk diffusion method; format: functional
[10] = system: Aspergillus fumigatus; assay: Antifungal activity against Aspergillus fumigatus assessed as growth inhibition after 48 hr by macro-dilution method; format: functional
[11] = system: Talaromyces marneffei; assay: Fungicidal activity against Talaromyces marneffei after 48 hr; format: functional
[12] = system: Radical scavenging activity; assay: Antioxidant activity assessed as DPPH radical scavenging activity at 6 ug/mL after 30 min by spectrophotometric analysis relative to control; format: functional
[13] = system: Escherichia coli; assay: Bactericidal activity against Escherichia coli ATCC 25922 after 18 to 24 hr; format: functional
[14] = system: Radical scavenging activity; assay: Antioxidant activity assessed as DPPH radical scavenging activity at 4 ug/mL after 30 min by spectrophotometric analysis relative to control; format: functional
[15] = system: Streptococcus pyogenes; assay: Bactericidal activity against Streptococcus pyogenes clinical isolate after 18 to 24 hr; format: functional
[16] = system: Radical scavenging activity; assay: Antioxidant activity assessed as DPPH radical scavenging activity at 8 ug/mL after 30 min by spectrophotometric analysis relative to control; format: functional
[17] = system: Klebsiella pneumoniae; assay: Antibacterial activity against Klebsiella pneumoniae clinical isolate assessed as growth inhibition after 24 hr by macro-dilution method; format: functional
[18] = system: Talaromyces marneffei; assay: Antifungal activity against Talaromyces marneffei assessed as growth inhibition after 48 hr by macro-dilution method; format: functional
[19] = system: Aspergillus fumigatus; assay: Fungicidal activity against Aspergillus fumigatus after 48 hr; format: functional
[20] = system: Pseudomonas aeruginosa; assay: Antibacterial activity against Pseudomonas aeruginosa ATCC 9029 assessed as growth inhibition after 24 hr by macro-dilution method; format: functional; conditions: ATCC 9029, 24 h
[21] = system: Trichophyton mentagrophytes; assay: Fungicidal activity against Trichophyton mentagrophytes after 48 hr; format: functional
[22] = system: Streptococcus pyogenes; assay: Antibacterial activity against Streptococcus pyogenes clinical isolate assessed as growth inhibition after 24 hr by disk diffusion method; format: functional
[23] = system: Escherichia coli; assay: Antibacterial activity against Escherichia coli ATCC 8739 assessed as growth inhibition after 24 hr by macro-dilution method; conditions: ATCC 8739, 24 h
[24] = system: Radical scavenging activity; assay: Antioxidant activity assessed as DPPH radical scavenging activity after 30 min by spectrophotometric analysis; format: functional
[25] = system: Trichophyton mentagrophytes; assay: Antifungal activity against Trichophyton mentagrophytes assessed as growth inhibition after 48 hr by agar disk diffusion method; format: functional
[26] = system: Candida albicans; assay: Antifungal activity against Candida albicans ATCC 90028 assessed as growth inhibition after 48 hr by agar disk diffusion method; format: functional
[27] = system: Staphylococcus aureus; assay: Antibacterial activity against methicillin-resistant Staphylococcus aureus assessed as growth inhibition after 24 hr by macro-dilution method; format: functional
[28] = system: Staphylococcus aureus; assay: Bactericidal activity against methicillin-resistant Staphylococcus aureus after 18 to 24 hr; format: functional
[29] = system: Radical scavenging activity; assay: Antioxidant activity assessed as DPPH radical scavenging activity at 2 ug/mL after 30 min by spectrophotometric analysis relative to control; format: functional
[30] = system: Streptococcus pyogenes; assay: Antibacterial activity against Streptococcus pyogenes clinical isolate assessed as growth inhibition after 24 hr by macro-dilution method; format: functional
[31] = system: Staphylococcus aureus; assay: Antibacterial activity against methicillin-resistant Staphylococcus aureus assessed as growth inhibition after 24 hr by disk diffusion method; format: functional
[32] = system: Candida albicans; assay: Antifungal activity against Candida albicans ATCC 90028 assessed as growth inhibition after 48 hr by macro-dilution method; format: functional; conditions: ATCC 90028, 48 h
[33] = system: Klebsiella pneumoniae; assay: Antibacterial activity against Klebsiella pneumoniae clinical isolate assessed as growth inhibition after 24 hr by disk diffusion method; format: functional

| SMILES | MFC [2] [µg/mL] | diameter of the inhibition zone (DIZ) [3] [mm] | diameter of the inhibition zone (DIZ) [5] [mm] | MIC [6] [µg/mL] | diameter of the inhibition zone (DIZ) [7] [mm] | Activity [8] [%] | diameter of the inhibition zone (DIZ) [9] [mm] | MIC [10] [µg/mL] | MFC [11] [µg/mL] | Activity [12] [%] | Activity [14] [%] | Activity [16] [%] | MIC [18] [µg/mL] | MFC [19] [µg/mL] | MFC [21] [µg/mL] | IC50 [24] [µg/mL] | diameter of the inhibition zone (DIZ) [25] [mm] | diameter of the inhibition zone (DIZ) [26] [mm] | Activity [29] [%] | diameter of the inhibition zone (DIZ) [31] [mm] | also measured |
| --- | --- | --- | --- | --- | --- | --- | --- | --- | --- | --- | --- | --- | --- | --- | --- | --- | --- | --- | --- | --- | --- |
| CC1(c2ccc(O)cc2)NNC(=O)CO1 (stereo unspecified) | 100 (≈ 480 µM) | 18.4 | 24.4 | 25 (≈ 120 µM) | 15.1 | 62.4 | 19.4 | 50 (≈ 240 µM) | 100 (≈ 480 µM) | 37.2 | 25.1 | 49 | 50 (≈ 240 µM) | 100 (≈ 480 µM) | 50 (≈ 240 µM) | 8.02 (≈ 38.5 µM) | 16.3 | 22.4 | 11.9 | 18.3 | MBC [1]: 100 µg/mL (≈ 480 µM); MBC [4]: 50 µg/mL (≈ 240 µM); MBC [13]: 100 µg/mL (≈ 480 µM); MBC [15]: 50 µg/mL (≈ 240 µM); MIC [17]: 25 µg/mL (≈ 120 µM); MIC [20]: 25 µg/mL (≈ 120 µM); diameter of the inhibition zone (DIZ) [22]: 19.3 mm; MIC [23]: 50 µg/mL (≈ 240 µM); MIC [27]: 25 µg/mL (≈ 120 µM); MBC [28]: 50 µg/mL (≈ 240 µM); MIC [30]: 25 µg/mL (≈ 120 µM); MIC [32]: 25 µg/mL (≈ 120 µM); diameter of the inhibition zone (DIZ) [33]: 14.6 mm |
| C[C@@H]1[C@H](O)[C@@H](C)/C=C/C=C/C=C/C=C/C=C/C=C/C=C/[C@H](O[C@@H]2O[C@H](C)[C@@H](O)[C@H](N)[C@@H]2O)C[C@@H]2O[C@](O)(C[C@@H](O)C[C@@H](O)[C@H](O)CC[C@@H](O)C[C@@H](O)CC(=O)O[C@H]1C)C[C@H](O)[C@H]2C(=O)O [AMPHOTERICIN B] | 25 (≈ 27.1 µM) | – | – | 6.25 (≈ 6.76 µM) | 21.5 | – | 26.5 | 12.5 (≈ 13.5 µM) | 25 (≈ 27.1 µM) | – | – | – | 12.5 (≈ 13.5 µM) | 25 (≈ 27.1 µM) | 25 (≈ 27.1 µM) | – | 23.5 | 30.5 | – | – | MIC [32]: 6.25 µg/mL (≈ 6.76 µM) |
| O=C1O[C@H]([C@@H](O)CO)C(O)=C1O [ASCORBIC ACID] | – | – | – | – | – | 87 | – | – | – | 53.4 | 34.9 | 69.3 | – | – | – | 4.45 (≈ 25.3 µM) | – | – | 18.4 | – | – |
| CC1(c2cccc(O)c2)NNC(=O)CO1 (stereo unspecified) | 25 (≈ 120 µM) | 25.4 | 26.2 | 12.5 (≈ 60 µM) | 14.5 | 82.8 | 22.4 | 12.5 (≈ 60 µM) | 50 (≈ 240 µM) | 50.2 | 31.8 | 66.3 | 12.5 (≈ 60 µM) | 50 (≈ 240 µM) | 25 (≈ 120 µM) | 5.99 (≈ 28.8 µM) | 17.2 | 25.5 | 16.7 | 19.1 | MBC [1]: 25 µg/mL (≈ 120 µM); MBC [4]: 25 µg/mL (≈ 120 µM); MBC [13]: 50 µg/mL (≈ 240 µM); MBC [15]: 25 µg/mL (≈ 120 µM); MIC [17]: 12.5 µg/mL (≈ 60 µM); MIC [20]: 12.5 µg/mL (≈ 60 µM); diameter of the inhibition zone (DIZ) [22]: 19.4 mm; MIC [23]: 12.5 µg/mL (≈ 60 µM); MIC [27]: 12.5 µg/mL (≈ 60 µM); MBC [28]: 25 µg/mL (≈ 120 µM); MIC [30]: 12.5 µg/mL (≈ 60 µM); MIC [32]: 12.5 µg/mL (≈ 60 µM); diameter of the inhibition zone (DIZ) [33]: 15.1 mm |
| CC1(c2ccc(O)cc2O)NNC(=O)CO1 (stereo unspecified) | 100 (≈ 446 µM) | 17.2 | 24.4 | 50 (≈ 223 µM) | 11.1 | 81.1 | 16.2 | 50 (≈ 223 µM) | > 100 | 49 | 30.2 | 64 | 50 (≈ 223 µM) | 100 (≈ 446 µM) | 100 (≈ 446 µM) | 6.28 (≈ 28 µM) | 14.1 | 20.2 | 15.7 | 17.1 | MBC [1]: > 100 µg/mL; MBC [4]: 100 µg/mL (≈ 446 µM); MBC [13]: 100 µg/mL (≈ 446 µM); MBC [15]: 100 µg/mL (≈ 446 µM); MIC [17]: 50 µg/mL (≈ 223 µM); MIC [20]: 50 µg/mL (≈ 223 µM); diameter of the inhibition zone (DIZ) [22]: 18.1 mm; MIC [23]: 50 µg/mL (≈ 223 µM); MIC [27]: 50 µg/mL (≈ 223 µM); MBC [28]: 100 µg/mL (≈ 446 µM); MIC [30]: 50 µg/mL (≈ 223 µM); MIC [32]: 50 µg/mL (≈ 223 µM); diameter of the inhibition zone (DIZ) [33]: 14.1 mm |
| CC1(c2ccccc2)NNC(=O)CO1 (stereo unspecified) | 25 (≈ 130 µM) | 17.4 | 24.2 | 25 (≈ 130 µM) | 14.1 | 59.5 | 17.2 | 25 (≈ 130 µM) | 100 (≈ 520 µM) | 34.8 | 23.8 | 46.8 | 25 (≈ 130 µM) | 50 (≈ 260 µM) | 50 (≈ 260 µM) | 8.25 (≈ 42.9 µM) | 14.5 | 21.4 | 9.86 | 18.2 | MBC [1]: 100 µg/mL (≈ 520 µM); MBC [4]: 100 µg/mL (≈ 520 µM); MBC [13]: 50 µg/mL (≈ 260 µM); MBC [15]: 50 µg/mL (≈ 260 µM); MIC [17]: 25 µg/mL (≈ 130 µM); MIC [20]: 25 µg/mL (≈ 130 µM); diameter of the inhibition zone (DIZ) [22]: 19.1 mm; MIC [23]: 25 µg/mL (≈ 130 µM); MIC [27]: 25 µg/mL (≈ 130 µM); MBC [28]: 50 µg/mL (≈ 260 µM); MIC [30]: 25 µg/mL (≈ 130 µM); MIC [32]: 25 µg/mL (≈ 130 µM); diameter of the inhibition zone (DIZ) [33]: 14.1 mm |
| O=C(O)c1cn(C2CC2)c2cc(N3CCNCC3)c(F)cc2c1=O [CIPROFLOXACIN] | – | 27.5 | 31.5 | – | – | – | – | – | – | – | – | – | – | – | – | – | – | – | – | 21 | – |
| CC1(c2cc(O)ccc2O)NNC(=O)CO1 (stereo unspecified) | 100 (≈ 446 µM) | 17.2 | 24.1 | 50 (≈ 223 µM) | 11.7 | 32.3 | 16.8 | 50 (≈ 223 µM) | 100 (≈ 446 µM) | 25.2 | 18.7 | 30.3 | 50 (≈ 223 µM) | 100 (≈ 446 µM) | 100 (≈ 446 µM) | 12.95 (≈ 57.8 µM) | 14.8 | 21.4 | 6.61 | 17.6 | MBC [1]: 100 µg/mL (≈ 446 µM); MBC [4]: 100 µg/mL (≈ 446 µM); MBC [13]: 100 µg/mL (≈ 446 µM); MBC [15]: 100 µg/mL (≈ 446 µM); MIC [17]: 50 µg/mL (≈ 223 µM); MIC [20]: 50 µg/mL (≈ 223 µM); diameter of the inhibition zone (DIZ) [22]: 18.6 mm; MIC [23]: 50 µg/mL (≈ 223 µM); MIC [27]: 50 µg/mL (≈ 223 µM); MBC [28]: 100 µg/mL (≈ 446 µM); MIC [30]: 50 µg/mL (≈ 223 µM); MIC [32]: 50 µg/mL (≈ 223 µM); diameter of the inhibition zone (DIZ) [33]: 14.8 mm |
